Data from patent publication US20050048508A1, “Trehalose receptor and method for detecting trehalose with the same” (KABUSHIKI KAISHA HAYASHIBARA SEIBUTSU KAGAKU KENKYUJO, priority 2002, published 2005).

Biological target: T1, T1R1 with G protein α-subunits (α15 and α16/Z chimeric protein) (Mus musculus, UniProt Q99PG6)
T1 construct: expressed in transfected cells; host or cells: 293 cells, RCB 1637 (human embryonic kidney)
T1 sequence (Q99PG6 20-842 L120P/N244D/D281A/N309Y/P311T/S314P/H418Y): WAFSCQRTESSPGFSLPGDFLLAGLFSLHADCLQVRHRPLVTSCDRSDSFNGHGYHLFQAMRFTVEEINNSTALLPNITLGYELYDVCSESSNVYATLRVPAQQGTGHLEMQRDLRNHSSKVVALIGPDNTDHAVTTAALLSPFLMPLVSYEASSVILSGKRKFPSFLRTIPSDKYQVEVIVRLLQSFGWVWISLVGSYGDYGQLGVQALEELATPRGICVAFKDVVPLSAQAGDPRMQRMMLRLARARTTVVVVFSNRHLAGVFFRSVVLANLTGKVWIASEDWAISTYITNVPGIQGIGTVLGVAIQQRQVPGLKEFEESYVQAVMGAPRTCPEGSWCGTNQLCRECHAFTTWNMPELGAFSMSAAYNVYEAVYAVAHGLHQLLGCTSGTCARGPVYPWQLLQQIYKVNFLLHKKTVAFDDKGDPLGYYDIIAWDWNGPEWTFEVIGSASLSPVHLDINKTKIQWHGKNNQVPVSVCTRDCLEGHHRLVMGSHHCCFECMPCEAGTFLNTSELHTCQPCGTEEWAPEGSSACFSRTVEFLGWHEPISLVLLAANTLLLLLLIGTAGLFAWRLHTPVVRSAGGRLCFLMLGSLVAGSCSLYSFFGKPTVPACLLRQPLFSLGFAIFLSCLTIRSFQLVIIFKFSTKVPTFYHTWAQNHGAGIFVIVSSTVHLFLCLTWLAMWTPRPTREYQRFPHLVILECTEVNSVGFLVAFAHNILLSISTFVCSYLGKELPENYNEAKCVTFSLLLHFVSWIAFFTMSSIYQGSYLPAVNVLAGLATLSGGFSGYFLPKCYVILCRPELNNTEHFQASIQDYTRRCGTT
Assay: Intracellular calcium ion assay, 293 cells coexpressing G protein α-subunits and T1R1
Assay type: cell-based
Conditions: 293 cells: T1R1 + G protein α-subunits; 0.67 ml of 1 M saccharide solution added to 2 ml cell suspension; FLUO-4 AM
Protocol: The coexpression vector for the G protein α-subunit α15 and the G protein α16/Z chimeric protein (hereinafter designated as “G protein α-subunits”) obtained in Example 1-3 was gene transferred to 293 cells, RCB 1637, a human embryonic kidney cell line, available from the Riken Bioresource Center, Ibaraki, Japan, by conventional lipofection. The gene transferred cells were suspended in Dulbecco's Modified Eagle's Medium (D-MEM) supplemented with 1 mg/L of “PUROMYCIN”, a trade mane of puromycin commercialized by Edge Biosystems, MD, USA, and 10% (v/v) of fetal calf serum to give a cell density of 2×10^6 cells/ml and cultured in a plastic petri dish for cell culture. […]
The captioned reactivity test was conducted according to a conventional intracellular calcium ion assay: 293 Cells prepared in Example 3, capable of coexpressing the G protein α-subunits and the sweet taste receptor(s), were cultured in a plastic petri dish for cell culture until reaching its confluent phase. […] Two milliliters of the resultant cell suspension was injected into a glass cuvette, commercialized by Hitachi, Ltd., Tokyo, Japan, and analyzed on “HITACHI 650-40”, a fluorescence spectrophotometer commercialized by Hitachi, Ltd., Tokyo, Japan. […]

| Influx of calcium ion | Compound |
| --- | --- |
| Negative | OC[C@H]1O[C@@](CO)(O[C@H]2O[C@H](CO)[C@@H](O)[C@H](O)[C@H]2O)[C@@H](O)[C@@H]1O [Sucrose, reference compound] |
| Negative | OC[C@H]1O[C@H](O[C@H]2O[C@H](CO)[C@@H](O)[C@H](O)[C@H]2O)[C@H](O)[C@@H](O)[C@@H]1O [Trehalose] |
